We go through one molecule from patent US20230270721A1, “INHIBITION OF BAX-MEDIATED CELL DEATH BY ELTROMBOPAG” (Albert Einstein College of Medicine, priority 2020, published 2023).

The target in one experiment is T1, BAX R134E (Homo sapiens, UniProt Q07812, R134E).
T1 construct: Human full-length (1-192) wild-type BAX (Q07812); made in house; host or cells: E. coli BL21 (DE3) CodonPlus (DE3)-RIPL
Put plainly: Liposomal permeabilization assay, trigger site mutant R134E. In kind it is biochemical. Conditions: 250 nM BAX and 5 nM tBID. As for the experimental part:
Lipids (Avanti Polar Lipids) at the following ratio, phosphatidylcholine 48%, phosphatidylinositol 10%, dioleoyl phosphatidylserine 10%, phosphatidylethanolamine, 28%, and tetraoleoyl cardiolipin 4%, were mixed in a total of 1 mg, dried and resuspended in 10 mM HEPES, pH 7, 200 mM KCI, and 5 mM MgCl2 with 12.5 mM 8-aminonaphthalene-1,3,6-trisulfonic acid (ANTS) dye and 45 mM p-xylene-bis-pyridinium bromide (DPX) quencher (Molecular Probes) using a water bath sonicator. Liposomes were formed by extrusion of the suspension using Avanti Mini-Extruder (Cat # 610000) with polycarbonate membranes of 0.1 µm pore size (Avanti Polar Lipids). […] ANTS/DPX release was quantified based on the increase in fluorescence intensity that occurs when the ANTS fluorophore is separated from the DPX quencher upon release from the liposomes into solution. Fluorescence (λex = 355 nm and λem = 520 nm) was measured at 1 minute intervals at room temperature (22-25° C.) indicated using a Tecan Infinite M1000 plate reader. In the case of heat activation, reactions were set up as described in the absence of tBID or BIM, and experiments were recorded at 42° C. The percentage release of ANTS/DPX at any given time point was calculated as percentage release=((F-F0)/(F100-F0))(100), where F0 and F100 are baseline and maximal fluorescence, respectively. […]

For another experiment, the system named is BAK KO (BAK-/-) MEFs. The experiment can be described thus: Cytochrome c release assay (ELISA), BAK KO MEFs. It counts as cell-based, mouse. Further details: dose or concentration left out as unconfirmed. As to conditions: BIM-BH3 peptide, EO pretreatment 2 hours. As for the experimental part:
BAX^-/^- or BAK^-/^- mouse embryonic fibroblasts were maintained in DMEM (Life Technologies) supplemented with 10% FBS, 100 U/mL penicillin/streptomycin, 2 mM I-glutamine, and 0.1 mM MEM nonessential amino acids. MEFs (5×10^4 cells/well) were seeded in a 96 well clear u-bottom plate for 18-24 hr. Media was removed and replaced with media lacking FBS, and cells were treated with varying doses of EO for 2 hours at 37° C. […] Cytochrome c release was determined by decanting 50 µL of the supernatant and analyzing with the rat/mouse cytochrome c quantikine ELISA kit (R&D Systems, MCTO) according to the recommended protocol. […]
It is important to note that THPO-receptor agonist activity of EO is highly specific to the human and chimpanzee THPO-receptors, making mouse cell lines ideal for studying EO modulation of BAX-dependent activity independent of THPO-mediated effects (Erickson-Miller, C. L. et al. Stem Cells 27, 424-430 (2009)). First, mitochondrial cytochrome c release, a hallmark of BAX activation and BAX-dependent apoptosis, was evaluated. […] Next, mitochondrial translocation of cytosolic BAX upon treatment with either BIM BH3 or staurosporine (STS) in BAK KO MEFs was evaluated.

For a further experiment, the system named is 3T3 cells. Put plainly: Caspase 3/7 activation assay, ABT-263 + S63845. It counts as cell-based, murine. Conditions: 1 µM ABT-263 and 1 µM S63845, 4 hr. Here is the method: 3T3 cells were maintained in media identical to that of MEFs. 3T3 cells were seeded (1×10^4 cells/well) in 96-well opaque plates for 18-24 hr. The media was removed and replaced with media lacking FBS, and cells were treated with EO as a 10X stock in H2O at the indicated doses for 2 hr before addition of 10% FBS. Cells were then treated with 1 µM each of ABT-263 and S63845. Caspase 3/7 activation was measured at 4 hr by addition of the Caspase-Glo 3/7 chemiluminescence reagent in accordance with the manufacturer’s protocol (Promega). Luminescence was detected by an F200 PRO microplate reader (TECAN). Percentage caspase activation was normalized to ABT-263 + S63845 alone (100%) and untreated cells (0%). Viability assays were performed at 24 hr by addition of CellTiter-Glo according to the manufacturer’s protocol (Promega). Luminescence was detected by an F200 PRO microplate reader (TECAN). Percentage viability was normalized to untreated cells (100%).
Next, whether EO is capable of rescuing cell death in cells expressing both BAX and BAK was determined. 3T3 cells, a murine fibroblast cell line, were treated with a combination of BH3-mimetics navitoclax (ABT-263) and S63845, which only in combination cause significant cytotoxicity in fibroblast cells.

Experiment [1] deals with megakaryocyte precursors and progenitor cells. As to conditions: differentiation of megakaryocyte precursors and progenitor cells; cited from earlier work.

T1 sequence (Q07812 whole entry R134E): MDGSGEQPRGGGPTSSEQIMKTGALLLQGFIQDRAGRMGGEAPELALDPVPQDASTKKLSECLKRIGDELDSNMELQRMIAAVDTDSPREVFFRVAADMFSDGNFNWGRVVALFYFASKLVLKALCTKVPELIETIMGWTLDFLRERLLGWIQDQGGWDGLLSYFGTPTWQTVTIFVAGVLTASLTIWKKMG

Consider `CC1=NN(c2ccc(C)c(C)c2)C(=O)/C1=N\Nc1cccc(-c2cccc(C(=O)O)c2)c1O` [EO, eltrombopag], for which, at BAX R134E, the “inhibition of liposomal release versus BAX WT” value is listed as “slight trend towards weaker inhibition”. In addition, the “BIM-BH3 induced release of cytochrome c” value in the experiment on BAK KO (BAK-/-) MEFs is recorded as “significantly inhibited”. The “apoptosis mediated by caspase 3/7 activity” value in the experiment on 3T3 cells was “significant reduction of apoptosis”. In addition, in experiment [1], the “time for stimulation of platelet production to begin” value is 5 days.
